In brackets after ≈: the same amount, converted by molar mass.
conditions: 25 °C

Structure (SMILES) | solubility
CCCCCCCCCc1ccc(O)cc1 | 0.0318 mM (≈ 0.007 mg/mL)
CCCC(C(=O)O)C(=O)O | 4790 mM (≈ 700 mg/mL)
CN(C)C(=O)N[C@@H]1C[C@@H]2C[C@H]1[C@@H]1CCC[C@H]21 | 0.675 mM (≈ 0.15 mg/mL)
Clc1ccc(Cl)c(-c2cc(Cl)ccc2Cl)c1 | 5.24e-05 mM (≈ 1.53e-05 mg/mL)
Clc1cc(Cl)c2c(c1Cl)Oc1ccccc1O2 | 2.92e-05 mM (≈ 8.41e-06 mg/mL)
N#CNC(=N)N | 491 mM (≈ 41.3 mg/mL)
CC(=O)OCC(=O)[C@@]1(O)CCC2C3CCC4=CC(=O)CC[C@]4(C)C3[C@@H](O)C[C@@]21C (stereo not given in full) | 0.0349 mM (≈ 0.0141 mg/mL)
CCCC(=O)CCC | 28 mM (≈ 3.2 mg/mL)
O=C1C(Cl)=C(Cl)C(=O)C(Cl)=C1Cl | 1.02 mM (≈ 0.25 mg/mL)
CCC[C@@H](O)CC | 158 mM (≈ 16.1 mg/mL)
CCCCCCC(=O)O | 21.6 mM (≈ 2.82 mg/mL)
CCOP(=O)(OCC)OCC | 2740 mM (≈ 500 mg/mL)
CC1CCCCC1 | 0.152 mM (≈ 0.015 mg/mL)
O=C(O)c1ccc(F)cc1 | 8.56 mM (≈ 1.2 mg/mL)
O=C(O)COc1c(Cl)ccc(Cl)c1Cl | 2.4 mM (≈ 0.613 mg/mL)
Clc1ccc(-c2cccc(Cl)c2)cc1 | 0.000398 mM (≈ 8.88e-05 mg/mL)
CC(C)OC(C)(C)C | 4.3 mM (≈ 0.5 mg/mL)
CN(C)C(=O)Nc1ccccc1 | 24.5 mM (≈ 4.03 mg/mL)
O=C1OCc2ccc([N+](=O)[O-])cc21 | 2.23 mM (≈ 0.4 mg/mL)
C=CCC1(C(C)CCC)C(=O)NC(=S)NC1=O (stereo not given) | 0.348 mM (≈ 0.0885 mg/mL)
Clc1ccc(Cl)c(-c2cc(Cl)c(Cl)cc2Cl)c1 | 4.72e-05 mM (≈ 1.54e-05 mg/mL)
Clc1cc(Cl)cc(-c2cc(Cl)cc(Cl)c2)c1 | 4.22e-06 mM (≈ 1.23e-06 mg/mL)
C#CCCCC | 4.73 mM (≈ 0.388 mg/mL)
C=C(c1ccccc1)c1ccccc1 | 0.0366 mM (≈ 0.0066 mg/mL)

Structure (SMILES) | solubility
C=CCBr | 31.7 mM (≈ 3.83 mg/mL)
COc1cc(C=O)ccc1O | 72.3 mM (≈ 11 mg/mL)
CCC(C)(C)c1ccccc1 | 0.0708 mM (≈ 0.0105 mg/mL)
O=C(O)CNC(=O)c1ccccc1 | 20.9 mM (≈ 3.75 mg/mL)
Clc1ccc(-c2cc(Cl)ccc2Cl)cc1 | 0.000555 mM (≈ 0.000143 mg/mL)
C=CCC1(C(C)C)C(=O)NC(=O)NC1=O | 19.4 mM (≈ 4.08 mg/mL)
NCCC(=O)O | 6120 mM (≈ 545 mg/mL)
Clc1ccc2c(c1)Oc1cc(Cl)ccc1O2 | 6.6e-05 mM (≈ 1.67e-05 mg/mL)
CC1(C)[C@H](C(=O)O)CC[C@]1(C)C(=O)O | 38 mM (≈ 7.6 mg/mL)
O=C(O)COc1ccc(Cl)cc1Cl | 3.06 mM (≈ 0.677 mg/mL)
C=CCc1ccc(O)c(OC)c1 | 27.4 mM (≈ 4.5 mg/mL)
Clc1cc(Cl)c(-c2c(Cl)cc(Cl)cc2Cl)c(Cl)c1 | 1.13e-06 mM (≈ 4.08e-07 mg/mL)
c1ccc2c(c1)Cc1cc3ccccc3cc1-2 | 1.1e-05 mM (≈ 2.38e-06 mg/mL)
COP(=S)(NC(C)C)Oc1ccc(Cl)cc1Cl (stereo not given) | 0.0159 mM (≈ 0.005 mg/mL)
COP(=O)(OC)OC | 3570 mM (≈ 500 mg/mL)
Cc1cc(C)cc(O)c1 | 39.9 mM (≈ 4.88 mg/mL)
S=C=Nc1cccc(Br)c1 | 0.0822 mM (≈ 0.0176 mg/mL)
CCOC(=S)SSC(=S)OCC | 0.0114 mM (≈ 0.00276 mg/mL)
COc1ccc2c(c1OC)C(=O)O[C@@H]2[C@H]1c2c(cc3c(c2OC)OCO3)CCN1C | 0.449 mM (≈ 0.186 mg/mL)
Clc1cccc2c1Oc1ccccc1O2 | 0.00191 mM (≈ 0.000417 mg/mL)
CCCCCCCCl | 0.101 mM (≈ 0.0136 mg/mL)
CC(C)CC(C)C | 0.0549 mM (≈ 0.0055 mg/mL)
O=C1NCCN1c1ncc([N+](=O)[O-])s1 | 0.607 mM (≈ 0.13 mg/mL)
CC(=O)Oc1ccccc1C(=O)O | 25.5 mM (≈ 4.6 mg/mL)

Structure (SMILES) | solubility
C=C(C)c1ccccc1 | 0.982 mM (≈ 0.116 mg/mL)
Fc1ccccc1Cl | 3.84 mM (≈ 0.501 mg/mL)
Cc1cnc2c(ccc3c(C)c(C)cnc32)c1C | 0.00639 mM (≈ 0.00151 mg/mL)
Clc1cc(-c2cc(Cl)c(Cl)c(Cl)c2Cl)c(Cl)c(Cl)c1Cl | 6.33e-07 mM (≈ 2.72e-07 mg/mL)
OCc1ccccc1 | 370 mM (≈ 40 mg/mL)
CCCN(CCC)CCC | 5.22 mM (≈ 0.748 mg/mL)
Cc1cc(C)c2ccccc2n1 | 11.4 mM (≈ 1.79 mg/mL)
CCC#CC(C)C | 1.8 mM (≈ 0.173 mg/mL)
CCCN(CCC)C(=O)SCC | 1.98 mM (≈ 0.375 mg/mL)
CC1CCCC(C)(C)C1 (stereo not given) | 0.014 mM (≈ 0.00177 mg/mL)
Cc1nc(N(C)C)nc(OC(=O)N(C)C)c1C | 11.3 mM (≈ 2.7 mg/mL)
C=CCCBr | 5.66 mM (≈ 0.764 mg/mL)
NS(=O)(=O)c1cc2c(cc1C(F)(F)F)NC(Cc1ccccc1)NS2(=O)=O (stereo not given) | 0.256 mM (≈ 0.108 mg/mL)
C=CCCCCCC | 0.0365 mM (≈ 0.0041 mg/mL)
CCCC(C)CC (stereo not given) | 0.0494 mM (≈ 0.00495 mg/mL)
COP(=S)(OC)SCCSC(C)C | 0.373 mM (≈ 0.097 mg/mL)
C1=CC=CCC=C1 | 6.73 mM (≈ 0.62 mg/mL)
NC(=O)c1ccccc1O | 15 mM (≈ 2.06 mg/mL)
O=C(O)c1cc(O)c(O)c(OC(=O)c2cc(O)c(O)c(O)c2)c1 | 1.55 mM (≈ 0.5 mg/mL)
C1OCOCO1 | 1940 mM (≈ 175 mg/mL)
O=C(O)c1ccc([N+](=O)[O-])c([N+](=O)[O-])c1 | 31.6 mM (≈ 6.7 mg/mL)
COc1ccc2c(c1OC)C(=O)OC2 | 12.9 mM (≈ 2.5 mg/mL)

same assay, conditions: 27 °C

Structure (SMILES) | solubility
CC(=O)[C@@]1(O)CC[C@H]2[C@@H]3CCC4=CC(=O)CC[C@]4(C)[C@H]3CC[C@@]21C | 0.0196 mM (≈ 0.00648 mg/mL)

same assay, conditions: 28 °C

Structure (SMILES) | solubility
O=C(O)CCCC(=O)O | 12100 mM (≈ 1600 mg/mL)
CCOC(=O)[C@H](Cc1ccccc1)NC(C)=O | 17.6 mM (≈ 4.13 mg/mL)

same assay, conditions: 30 °C

Structure (SMILES) | solubility
COc1ccc2ccc(=O)oc2c1CC=C(C)C | 0.0491 mM (≈ 0.012 mg/mL)
Cc1c(N(C)C)c(=O)n(-c2ccccc2)n1C | 235 mM (≈ 54.4 mg/mL)
CCCCC1C(=O)N(c2ccccc2)N(c2ccc(O)cc2)C1=O (stereo not given) | 0.185 mM (≈ 0.06 mg/mL)
NS(=O)(=O)c1cc2c(cc1Cl)N=CNS2(=O)=O | 0.899 mM (≈ 0.266 mg/mL)
COc1ccc([N+](=O)[O-])cc1 | 3.85 mM (≈ 0.59 mg/mL)
CN(C)CCN(Cc1ccccc1)c1ccccn1 | 2.3 mM (≈ 0.587 mg/mL)
CN1c2ccccc2Sc2ccc(CC(=O)O)cc21 | 0.114 mM (≈ 0.031 mg/mL)

Reference: the OPERA property sets (Mansouri et al. 2018)
